Like-named read-outs stand apart in the source and are kept apart here.

Among the data in patent publication US20150174145A1, “Pharmaceutical compounds with the structure of ionic salts with antibiotic and anticancer action” (priority 2013, published 2015) are Minimum inhibitory concentrations, IC50 and MIC values, retold here.

One assay concerns E. coli ATCC 25922. Kind of assay: Minimum inhibitory concentration, ampicillin sensitive strains. The class given is cell-based, Escherichia coli. The conditions noted are these: for Minimum inhibitory concentrations: E. coli ATCC 25922, Gram-negative, ampicillin sensitive. The method, then:
(§1) Each one of the 24 combinations of the ionic liquids were tested with following 9 bacteria: • Escherichia coli ATCC25922 • Staphylococcus aureus ATCC25923 • Klebsiella pneumonia • Staphylococcus epidermidis • Enterococcus fecalis • E. coli Tem CTXM9 • E. coli CTXM2 • E. coli AmpCMox2 • Saccharomyces cerevisiae PYCC 4072
(§2) These bacteria were tested in Vitek2 systems from bioMérieux. Bacteria were grown on Trypticase soy agar for 24 hours at 37° C. prior to each test. The bacteria assays were made in Tryptic Soy Broth.

Another assay relates to K. pneumoniae. The description is as above. The conditions noted are these: for Minimum inhibitory concentrations: K. pneumoniae, Gram-negative, ampicillin sensitive. It is filed as cell-based, Klebsiella pneumonia. As for the experimental part:
as §1, §2

In a further assay the test system is S. aureus ATCC 25923. The assay is described as above. The class given is cell-based, Staphylococcus aureus. The conditions noted are these: for Minimum inhibitory concentrations: S. aureus ATCC 25923, Gram-positive, ampicillin sensitive. The method, then:
as §1, §2

A further assay relates to E. fecalis. Described as above. The conditions noted are these: for Minimum inhibitory concentrations: E. fecalis, Gram-positive, ampicillin sensitive. The class given is cell-based, Enterococcus fecalis. As for the experimental part: as §1, §2
A further assay has as its system S. epidermis. The assay is described as above. The class given is cell-based, Staphylococcus epidermidis. To be noted: for Minimum inhibitory concentrations: S. epidermis, Gram-positive, ampicillin sensitive. As for the experimental part:
as §1, §2

The test system of the next assay is E. coli CTX M2. In words: Minimum inhibitory concentration, ampicillin resistant strains. The class given is cell-based. The conditions noted are these: for Minimum inhibitory concentrations: E. coli CTX M2, ampicillin resistant. The method, then:
as §1, §2

Another assay relates to E. coli TEM CTX M9. Described as above. The conditions noted are these: for Minimum inhibitory concentrations: E. coli TEM CTX M9, ampicillin resistant. The class given is cell-based. As for the experimental part: as §1, §2
A further assay has as its system E. coli AmpC MOX2. In words: microbe, parasite or virus in culture. The class given is cell-based. To be noted: for Minimum inhibitory concentrations: E. coli AmpC MOX2, ampicillin resistant. The method, then:
as §1, §2

Assay [1] deals with gingival fibroblasts (GF). In words: MTT cellular viability/proliferation, primary human cells. It is filed as cell-based. To be noted: MTT assay. The method, then:
(§3) At about 70-80% confluence, cells were enzymatically detached with 0.05% trypsin and 0.5 mM EDTA and seeded at 10^4 cells cm^−2.
(§4) After an attachment period of 24 hours, the culture medium was renewed, and supplemented with different concentrations (0.005-500 mM) of the ampicillin derived ionic liquid. Cell cultures were maintained in a 5% CO2 humidified atmosphere at 37° C.
(§5) Cellular viability/proliferation was assessed by the MTT assay at days 1, 3 and 5 of the culture. This assay is based on the reduction of 3-(4,5-dimethylthiazol-2-yl)-2,5-diphenyltetrazolium bromide (MTT) to a purple formazan product by viable cells.
(§6) Shortly, cultured cells were incubated at 37° C. with 0.5 mg ml −1 of MTT for 4 hours. The culture medium was then removed; the stained product dissolved with dimethylsulfoxide, and absorbance determined at 550 nm in an ELISA plate rewader. Results were expressed as absorbance per cm2.
(§7) The values of the […] (IC50) and the median lethal dose (LD50) were obtained from nonlinear regression analysis of concentration effect curves using the GGraphPad Prism Software.
(§8) It is used to measure the efficacy of a compound in inhibiting any biochemical or biological function.

Assay [2] deals with PC3 (prostate cancer cell line). In words: MTT cellular viability/proliferation, cancer cell lines. It is filed as cell-based, human. To be noted: PC3, MTT assay. As for the experimental part: as §3, §4, §5, §6, §7, §8
(Tetrazolium assays rely on reduction of a dye to a coloured formazan, in cell work by metabolically active cells.)

The subject of assay [3] is RKO (colon cancer cell line). Described as above. The class given is cell-based, human. The conditions noted are these: MTT assay. As for the experimental part:
as §3, §4, §5, §6, §7, §8

In another assay the test system is SF (skin fibroblasts). Kind of assay: MTT cellular viability/proliferation, primary human cells. It is filed as cell-based. The conditions noted are these: MTT assay. The method, then: as §3, §4, §5, §6, §7, §8
Assay [4] deals with MG63 (osteosarcoma cell line). In words: MTT cellular viability/proliferation, cancer cell lines. The class given is cell-based, human. The conditions noted are these: MG63, MTT assay. As for the experimental part: as §3, §4, §5, §6, §7, §8
The test system of assay [5] is T47D (ductal breast epithelial tumour cell line). Kind of assay: cells. The class given is cell-based. As for the experimental part:
as §3, §4, §5, §6, §7, §8

In assay [6] the test system is HepG2 (hepatocellular liver carcinoma cell). In words: MTT cellular viability/proliferation, cancer cell lines. It is filed as cell-based, human. To be noted: HepG2, MTT assay. The method, then: as §3, §4, §5, §6, §7, §8

In general, IC50 refers to the concentration needed to halve the response being measured. A low value points to inhibition by little substance. For `CC1(C)S[C@@H]2[C@H](NC(=O)[C@H](N)c3ccccc3)C(=O)N2[C@H]1C(=O)[O-].[Na+]` [[Na][Amp]] [sodium ampicillin], the Minimum inhibitory concentrations in the assay on E. coli ATCC 25922 is listed as 0.05 mM; with K. pneumoniae it was 2.5 mM; with S. aureus ATCC 25923, 0.005 mM; with E. fecalis it was 0.05 mM; with S. epidermis it was 0.05 mM; in the assay with E. coli CTX M2, over 5 mM. For the same compound, the Minimum inhibitory concentrations in the assay on E. coli TEM CTX M9 and in the assay with E. coli AmpC MOX2 was over 5 mM each time. Besides, the IC50 in [1] came to 109000 nM; in assay [2] it was 597 nM; in assay [3], 2410 nM.

Consider `C[N+](C)(C)CCO.[Cl-]` [[Cholin][Cl]], for which the Minimum inhibitory concentrations is reported as over 5 mM in the assay with E. coli ATCC 25922; over 5 mM in the assay with K. pneumoniae; 2.5 mM in the assay on S. aureus ATCC 25923; over 5 mM in the assay on E. fecalis; over 5 mM in the assay on S. epidermis; over 5 mM in the assay with E. coli CTX M2. The Minimum inhibitory concentrations in the assay on E. coli TEM CTX M9 and with E. coli AmpC MOX2 was over 5 mM each time.

Turning to `CC1(C)S[C@@H]2[C@H](NC(=O)[C@H](N)c3ccccc3)C(=O)N2[C@H]1C(=O)[O-].CC[n+]1ccn(C)c1` [[EMIM][Amp]], the Minimum inhibitory concentrations in the assay with E. coli ATCC 25922, in the assay with K. pneumoniae, in the assay with S. aureus ATCC 25923, with E. fecalis, in the assay on S. epidermis and in the assay with E. coli CTX M2 was over 5 mM each time. The Minimum inhibitory concentrations in the assay on E. coli TEM CTX M9 and in the assay on E. coli AmpC MOX2 was over 5 mM throughout. The IC50 in [1] amounted to 853 nM; in [2] it was 30000 nM; in assay [3], 269 nM.

Regarding `CC1(C)S[C@@H]2[C@H](NC(=O)[C@H](N)c3ccccc3)C(=O)N2[C@H]1C(=O)[O-].CCCCCCCCCCCCCCCC[n+]1ccccc1` [[C16Pyr][Amp]], the Minimum inhibitory concentrations in the assay with E. coli ATCC 25922 is 0.5 mM; in the assay on K. pneumoniae, 0.05 mM; in the assay with S. aureus ATCC 25923, 0.005 mM; in the assay on E. fecalis it was 0.005 mM; with S. epidermis it was 0.005 mM; in the assay on E. coli CTX M2, 0.05 mM. The Minimum inhibitory concentrations in the assay with E. coli TEM CTX M9 was 0.005 mM; in the assay on E. coli AmpC MOX2, over 5 mM. Further, the half-maximal inhibitory concentration (IC50) turned out to be 32 nM with SF (skin fibroblasts); 12 nM in assay [1]; 11 nM in assay [4]; 226 nM in assay [3]; 5 nM in assay [5] (T47D, MTT assay).

Take `CCCCCCCCCCCCCC[P+](CCCCCC)(CCCCCC)CCCCCC.[Cl-]` [[P6,6,6,14][Cl]]: the Minimum inhibitory concentrations in the assay on E. coli ATCC 25922 was 2.5 mM; in the assay with K. pneumoniae, 2.5 mM; with S. aureus ATCC 25923, 2.5 mM; in the assay with E. fecalis, over 5 mM; in the assay with S. epidermis, 2.5 mM; with E. coli CTX M2 it was 5 mM. The Minimum inhibitory concentrations in the assay on E. coli TEM CTX M9 is on record as 2.5 mM; in the assay with E. coli AmpC MOX2, over 5 mM.

As for `CC1(C)S[C@@H]2[C@H](NC(=O)[C@H](N)c3ccccc3)C(=O)N2[C@H]1C(=O)[O-].C[n+]1ccn(CCO)c1` [[C2OHMIM][Amp]], the Minimum inhibitory concentrations in the assay with E. coli ATCC 25922 is reported as 5 mM; with K. pneumoniae, over 5 mM; with S. aureus ATCC 25923, over 5 mM; in the assay on E. fecalis, 5 mM; with S. epidermis, 2.5 mM; in the assay with E. coli CTX M2, over 5 mM. Also, the Minimum inhibitory concentrations in the assay with E. coli TEM CTX M9 is over 5 mM; in the assay on E. coli AmpC MOX2, 5 mM. For the same compound, the IC50 came out at 5080 nM with SF (skin fibroblasts); 462 nM in assay [1]; 319 nM in assay [6]; 738 nM in [4]; 359 nM in [3]; 146 nM in assay [5] (T47D, MTT assay).

As to `CC1(C)S[C@@H]2[C@H](NC(=O)[C@H](N)c3ccccc3)C(=O)N2[C@H]1C(=O)[O-].C[N+](C)(C)CCO` [[Cholin][Amp]], the Minimum inhibitory concentrations in the assay on E. coli ATCC 25922, in the assay with K. pneumoniae, in the assay on S. aureus ATCC 25923, in the assay with E. fecalis, with S. epidermis and in the assay with E. coli CTX M2 was over 5 mM each time. The Minimum inhibitory concentrations with E. coli TEM CTX M9 and with E. coli AmpC MOX2 was over 5 mM in each case. For the same compound, the IC50 with SF (skin fibroblasts) stood at 48500 nM; in assay [6], 1620 nM; in assay [4] it was 17 nM; in assay [2], 982 nM.

Take `CCCCCCCCCCCCCCCC[n+]1ccccc1.[Cl-]` [[C16Pyr][Cl]]: the Minimum inhibitory concentrations in the assay with E. coli ATCC 25922 is listed as 0.5 mM; with K. pneumoniae, 2.5 mM; in the assay on S. aureus ATCC 25923 it was 0.5 mM; in the assay on E. fecalis, 0.5 mM; in the assay on S. epidermis, 2.5 mM; with E. coli CTX M2 it was over 5 mM. Also, the Minimum inhibitory concentrations is listed as 0.5 mM with E. coli TEM CTX M9 and over 5 mM in the assay on E. coli AmpC MOX2.

On to `CC[N+](CC)(CC)CC` [[TEA][Br], Tetraethylammonium bromide], for which the MIC in the assay on E. coli ATCC 25922 (Escherichia coli, ATCC25922, read-out: Minimum inhibitory concentrations) is over 5 mM; in the assay with K. pneumoniae (Klebsiella pneumoniae, read-out: Minimum inhibitory concentrations), over 5 mM; in the assay on S. aureus ATCC 25923 (Staphylococcus aureus, ATCC25923, read-out: Minimum inhibitory concentrations), 2.5 mM; with E. fecalis (Enterococcus, read-out: Minimum inhibitory concentrations), over 5 mM; in the assay with S. epidermis (Staphylococcus epidermidis, read-out: Minimum inhibitory concentrations), over 5 mM; with E. coli CTX M2 (Escherichia coli, CTXM2, read-out: Minimum inhibitory concentrations), 2.5 mM. The MIC with E. coli TEM CTX M9 (Escherichia coli, read-out: Minimum inhibitory concentrations) was over 5 mM; with E. coli AmpC MOX2 (Escherichia coli, AMPCMOX2, read-out: Minimum inhibitory concentrations, E. coli AmpC MOX2, ampicillin resistant) it was over 5 mM.

On to `CC1(C)S[C@@H]2[C@H](NC(=O)[C@H](N)c3ccccc3)C(=O)N2[C@H]1C(=O)[O-].CC[N+](CC)(CC)CC` [[TEA][Amp], tetraethyl ammonium salt of Ampicillin], for which the Minimum inhibitory concentrations in the assay on E. coli ATCC 25922, in the assay on K. pneumoniae, in the assay with S. aureus ATCC 25923, in the assay on E. fecalis, in the assay on S. epidermis and with E. coli CTX M2 was over 5 mM throughout. Moreover, the Minimum inhibitory concentrations in the assay on E. coli TEM CTX M9 and in the assay on E. coli AmpC MOX2 was over 5 mM throughout. Besides, the half-inhibitory concentration (IC50) in [4] came to 30 nM; in [2], 35600 nM; in assay [3] it was 56700 nM; in assay [5] it was 42 nM.

As for `C[n+]1ccn(CCO)c1.[Cl-]` [[C2OHMIM][Cl]], the Minimum inhibitory concentrations with E. coli ATCC 25922 is 5 mM; with K. pneumoniae, over 5 mM; in the assay on S. aureus ATCC 25923, over 5 mM; in the assay on E. fecalis, 5 mM; in the assay with S. epidermis it was 5 mM; in the assay on E. coli CTX M2, 2.5 mM. For the same compound, the results for the Minimum inhibitory concentrations in the assay with E. coli TEM CTX M9 and in the assay on E. coli AmpC MOX2 were over 5 mM and 5 mM, respectively.

With `CCn1cc[n+](C)c1.[Br-]` [[EMIM][Br]], the Minimum inhibitory concentrations in the assay with E. coli ATCC 25922 is over 5 mM; in the assay on K. pneumoniae, over 5 mM; in the assay on S. aureus ATCC 25923 it was 0.05 mM; with E. fecalis, over 5 mM; with S. epidermis, 5 mM; with E. coli CTX M2 it was over 5 mM. For the same compound, the figures for the Minimum inhibitory concentrations in the assay with E. coli TEM CTX M9 and in the assay with E. coli AmpC MOX2 were 5 mM and over 5 mM, respectively.
